{"source": "patent US9375435B2", "about": "“Use of a DNA expression construct” (MOLOGEN AG, priority 2010, dated 2016)", "key": {"[1]": {"system": "A375 melanoma xenotransplanted-tumours", "test": "Chemo-sensitization of xenotransplanted tumours, intratumoral jet injection", "format": "in vivo", "conditions": "twice 150 μg DNA construct, twice 0.5 mg/kg vindesine where indicated", "description": "A) In vitro chemo-sensitization assay results. B) Chemo-sensitization of A375 melanoma xenotransplanted tumors.\nThe intratumoral jet injection was performed using twice 150 μg of the dumbbell-shaped DNA construct and where indicated additionally twice 0.5 mg/kg tumour vindesine.\nOn the y-axis is the median of the relative tumour volume shown for the indicated days after transfer (x-axis)."}, "A375 melanoma cells": {"system": "A375 melanoma cells", "conditions": "vindesine 12.8 μg per ml", "excerpt": "In further experiments the effect of TNF-α expression on cell vitality and tumour volume was investigated."}}}
{"molecule": "CC[C@]1(O)C[C@@H]2CN(CCc3c([nH]c4ccccc34)[C@@](C(=O)OC)(c3cc4c(cc3OC)N(C)[C@H]3[C@@](O)(C(N)=O)[C@H](O)[C@]5(CC)C=CCN6CC[C@]43[C@@H]65)C2)C1", "note": "[vindesine]", "values": [{"measurement": "median of the relative tumour volume", "setting": "[1]", "value": "reduces the average tumour volume"}, {"measurement": "relative cell vitality", "setting": "A375 melanoma cells", "value": 0.6}]}
